In PMC8464955, “Prediction of Drug–Drug Interaction Potential of Tegoprazan Using Physiologically Based Pharmacokinetic Modeling and Simulation” (Pharmaceutics, 2021):
Like-named read-outs stand apart in the source and are kept apart here.

Legend:
[1] = Clinical DDI studies of tegoprazan with clarithromycin or clarithromycin/amoxicillin (observed); format: in vivo, human
Method: (§1) The established PBPK model was verified by applying the predicted values to the clinical PK data from various phase 1 studies conducted with healthy male adults (Supplementary Table S2). Brief information about the clinical studies follows: study 1 (single-dose PK study), a single dose of tegoprazan 25 mg and 50 mg was orally administered; study 2 (food effect study), a single dose of tegoprazan 50 mg was orally administered in both fasted and fed states; study 3 (bioequivalence study of two formulations), a single dose of two different formulations with tegoprazan 100 mg was orally administered; study 4 (multiple-dose PK study), multiple doses of tegoprazan 50 mg and 100 mg were orally administered once daily for 7 days; study 5 (DDI study with clarithromycin), multiple doses of tegoprazan 200 mg were orally administered once daily with or without multiple doses of clarithromycin 500 mg twice daily for 5 days; and study 6 (DDI study with clarithromycin and amoxicillin), multiple doses of tegoprazan 100 mg were orally administered twice daily with or without multiple doses of clarithromycin/amoxicillin 500/1000 mg twice daily for 5 days or 7 days.
After refining and verifying the PBPK model of tegoprazan as a single agent, the DDI between tegoprazan and clarithromycin was finally verified using data from DDI clinical studies. To verify the predictability of the DDI estimated by the PBPK model of tegoprazan, the model-predicted PK profiles, parameters, and fold-increase of parameters were compared with the observed PK data measured in clinical studies (i.e., studies 5 and 6). In the case of study 6, the observed data were generated under the condition of triple administration of tegoprazan, clarithromycin, and amoxicillin. […] When simulating the DDI between tegoprazan and clarithromycin, the PBPK model of clarithromycin available in the SimCYP compound file was used.

[2] = Parallel artificial membrane permeability assay (PAMPA); format: in vitro ADME
Description: The advanced dissolution, absorption, and metabolism model was used. The unbound fraction of the drug in enterocytes (fuGut) and the human jejunum effective permeability (Peff,man) were predicted because these values were not routinely measured (Table 1). The value of fuGut was predicted using the values of in vitro parameters, such as the octanol:water partition coefficient, the fraction of intracellular water, and other distribution-related parameters (in-house data). The value of Peff,man was predicted using parallel artificial membrane permeation assay permeability (in-house data).

CYP3A4 = CYP3A4 intrinsic clearance by parameter estimation against clinical data; design: species or system human; settings: estimated from clinical data, single dose 50 mg, instead of in vitro data
Method: The elimination of the PBPK model consisted of enzyme kinetic and renal clearance (Table 1). Intrinsic clearances (CLint) of tegoprazan by various CYPs were determined by an in vitro study that measured the fraction of CLint inhibited by adding the inhibitors of CYP1A2, CYP2C9, CYP2C19, CYP2D6, and CYP3A to human liver microsomes (in-house data). Based on the in vitro data, an in vitro to in vivo extrapolation (IVIVE) approach was used to estimate the in vivo CLint by each CYP enzyme. Renal clearance as an additional clearance was used from the result of a single-oral-dose study of tegoprazan 100 mg.
If the predicted PK profiles and parameters were not close enough to the observed values, the PBPK model was refined by the parameter estimation approach, in which a parameter was optimized with respect to the clinical data. Parameter estimation was conducted using the genetic algorithm method and weighted-least squares as the objective function. Four parameters were simultaneously estimated in the final step of model refinement using clinical data of single-dose PK study of tegoprazan 50 mg (Table 1). The values of Q and VSAC were estimated to reflect the biphasic distribution of tegoprazan, and the value of Kp scalar was estimated because it affected the overall PK profile, especially distribution and clearance. […]

[3] = cited from earlier work; for AUCτ Obs. / Cmax Obs.: mean; for Tmax Obs.: median
gastric H^+/K^+-ATPase = tested on: gastric H^+/K^+-ATPase; design: method as in PMID 31437865; settings: from 50 mg to 400 mg; cited from earlier work
[4] = Phase 1 clinical PK studies of tegoprazan alone in healthy male adults (observed); format: in vivo; settings: human, urine and plasma, single oral dose 100 mg, read-out: CLR (renal clearance) (converted)
Method: as §1

[5] = tegoprazan 100 mg BID with vs without clarithromycin 500 mg BID + amoxicillin 1000 mg BID
[6] = tegoprazan 200 mg QD with vs without clarithromycin 500 mg BID
[7] = tegoprazan 100 mg BID + clarithromycin 500 mg BID + amoxicillin 1000 mg BID, 7 days
[8] = tegoprazan 100 mg BID alone for 4 days, once on day 5
[9] = tegoprazan 200 mg QD + clarithromycin 500 mg BID for 5 days, ref NCT02052336
[10] = tegoprazan 200 mg QD alone for 5 days, ref NCT02052336

With `Cc1nc2cc(C(=O)N(C)C)cc(O[C@H]3CCOc4cc(F)cc(F)c43)c2[nH]1` [tegoprazan] the “Fold Increase Obs. AUCR” value [1, 5] was 2.69, the “Fold Increase Obs. CmaxR” value [1, 5] was 2.24 and the “Fold Increase Obs. AUCR” value [1, 6] was 2.57. For the same compound, the “Fold Increase Obs. CmaxR” value [1, 6] was 1.66, the Papp [2] was 68.4 ×10⁻⁶ cm/s and the “CYP3A4 CLint” value (CYP3A4) was 30.34 μL/min/mg of protein. The “DDI between tegoprazan and amoxicillin” value [3] was “negligible”, the “apparent clearance, DDI study result” value ([3]; co-administration of clarithromycin) was 6.6 L/h and the “AUCτ Obs.” value [3, 7] was 16,045.0 μg∙h/L. For the same compound, the “Cmax Obs.” value [3, 7] was 2285.6 ng/mL, the “Tmax Obs.” value [3, 7] was 2.50 h and the “AUCτ Obs.” value [3, 8] was 5955.9 µg·h/L. The “Cmax Obs.” value [3, 8] was 1018.4 ng/mL, the “Tmax Obs.” value [3, 8] was 1.30 h and the “AUCτ Obs.” value [3, 9] was 27,796.4 μg∙h/L. For the same compound, the “Cmax Obs.” value [3, 9] was 3096.0 ng/mL, the “Tmax Obs.” value [3, 9] was 1.50 h and the “AUCτ Obs.” value [3, 10] was 10,817.6 μg∙h/L. For the same compound, the “Cmax Obs.” value [3, 10] was 1868.6 ng/mL, the “Tmax Obs.” value [3, 10] was 1.00 h and the “apparent clearance, DDI study result” value ([3]; tegoprazan alone) was 17.7 L/h. The “magnitude of acid suppression” value (gastric H^+/K^+-ATPase) was “increases in a dose-dependent manner” and the CL renal [4] was 21.8 mL/min.
